Data from patent US10676440B2, “Crystalline forms of an NK-1 antagonist” (Helsinn Healthcare SA, priority 2014, dated 2020).
“And” between values parts separate entries of the source, which are not always exact repeats. Equal values may be shown once.

Columns and labels:
[1] = in vivo; settings: for AUC(0-t): AUC (0-100 h)
Procedure: In Example 10, the pharmacokinetics of the compound of Formula I in dogs following single intravenous and oral administration was evaluated and the oral bioavailability of five different salts of the compound of Formula I was compared. The compound of Formula I was administered to dogs as described in Table 12. The doses are expressed in mg of free base.
The experiments were performed in 15 male dogs (bodyweight 11-18 kg) from RCC Ltd., Biotechnology and Animal Breeding Division, Wolferstrasse 4, CH-4414, Fullinsdorf, Switzerland. The animals were housed under standard laboratory conditions throughout the study period.
For the pharmacokinetic studies, 1 mL blood samples were collected from the cephalic vein of the dogs via catheter at 15, 30 min and at 1, 2, 3, 4, 6, 8, 24, 32, 48, 56, 72, 80, 96, and 100 (or 104) hours following oral dosing. After intravenous administration, blood samples were collected at 5, 15, 30 min and 1, 2, 3, 4, 6, 8, 24, 32, 48, 56, 75, 102, 120, 128, 144, 152, 168, 176, 192, and 200 hours. Collection tubes contained EDTA/NaF as anticoagulant and stabilizer. After centrifugation, plasma was removed and stored deep frozen at approximately −20° C. until analysis using a specific LC-MS method.
Aliquots of 40 μL plasma were mixed with 50 μL buffer at pH 5, 50 μL internal standard of Formula I (1 μg/mL in 1-chlorobutane) and 250 μL butylacetate and then shaken for 10 min. After centrifugation, 200 μL of the supernatant were evaporated to dryness at 45° C. under a stream of nitrogen. The residue was reconstituted with 200 μL acetonitrile/1% formic acid in water (30/70, v/v). Aliquots of 30 μL were injected onto the analytical column (Waters, Symmetry C8, 2.1×150 mm, 5 μm).
Separation occurred by gradient elution using a solvent A (acetonitrile) and solvent B (1% formic acid in water). The flow rate was 0.3 mL/min and the gradient elution was: […]
The sample passed to the ion-spray interface of the single quadrupole mass spectrometer. Selected ion monitoring mode (SIM) was used for mass spectrometric detection. Quantification was based on peak area ratios and calibration curve established between 2 and 5000 ng/mL.
To a 100 μL sample aliquot were added 200 μL of a mixture of acetonitrile/ethanol containing the deuterated internal standard, to precipitate plasma proteins. After vortex mixing and centrifugation, aliquots of the supernatants were transferred to 96-deel-well plates and injected for analysis (5 μL). Following enrichment and cleanup on the trapping column, the analyte was eluted and separated by gradient elution on a 2.1*30 mm analytical column (XTerra MS C18). The effluent from the analytical column was passed to the turbo ion spray vie a divert valve.
Calibration standards were prepared in dog plasma. The calibration range was from 10-5000 ng/mL. In each analytical series, a set of calibration standards was worked up and run with the unknowns. Calibration was then performed by computing a weighted (1/X^2) least-squares linear regression line of the measured peak area ratios (Y) (analyte to internal standard) versus the spiked concentrations (X). The drug concentrations of the unknown samples were then calculated from this regression line (UNICHROM). The performance of the analytical procedure during sample analysis was monitored. With each analytical series, quality control (QC) samples in dog plasma, spiked with known amounts of the analyte, were run together with the study samples.
The pharmacokinetic parameters were estimated by non-compartmental analysis, using the pharmacokinetic evaluation program WinNOnlin [1]. AUC(0-inf.) was calculated applying the linear trapezoidal rule and extrapolation to infinity using the apparent elimination rate constant kz and the calculated concentration at the last measurable time point. AUClast values were calculated by linear trapezoidal rule from time zero to time of last measureable time point.

[2] = in vivo
Procedure: In Example 11, the pharmacokinetics of the compound of Formula I was evaluated following single intravenous, intraperitoneal, and oral administration to rats to compare the oral bioavailability of two different formulations and to measure the brain penetration after intravenous administration.
A solution of the compound of Formula I (4.7 mg/mL) in water and a suspension of the compound of Formula I (5 mg/mL) in SSV (standard suspension vehicle) were prepared.
The experiments were performed in 20 male rats (Strain RoRo Fuellinsdorf, body weight 230-290 g) from Biological Research Laboratories, Fuellinsdorf, Switzerland. The animals were housed under standard laboratory conditions throughout the study period. After an acclimatization period of 3 days, the rats were implanted with chronic jugular catheters under pentobarbital anesthesia. After surgery the rats were on recovery for 2 days before dosing. They had free access to water and food during the experiment.
For the pharmacokinetic studies, 0.4 mL blood samples were collected at different time points, up to 72 hours post-dose, from the jugular vein of the rats via catheter. For the study of brain and CSF penetration, 2 mL blood samples as well as CSF and brain were collected between 0.3 and 2 hours post-dose from one rat at each time point. Collection tubes contained EDTA/NAF as anticoagulant and stabilizer, respectively. After centrifugation, plasma was removed. Plasma, CSF and brain samples were stored deep-frozen at approximately −20° C. until analysis using a specific LC-MS method.
Aliquots of plasma samples of 40 μL were mixed with 50 μL buffer pH 9, 50 μL of a Formula I internal standard (1 μg/mL 1-chlorobutane) and 250 μL butylacetate and then shaken for 10 min. After centrifugation, 200 μL of the supernatant were evaporated to dryness at 45° C. under a stream of nitrogen. The residue was reconstituted with 200 μL acetonitrile/1% formic acid in water (30/70, v/v). An aliquot of 30 μL was injected onto an analytical column (Waters, Symmetry C8, 2.1×150 mm, 5 μm).
The sample passed to the ion-spray interface of the single quadrupole mass spectrometer. Selected ion monitoring mode (SIM) was used for mass spectrometric detection. Quantification was based on peak area ratios and calibration curve established by weighted (1/x^2) linear regression. The calibration curve was established between 5 and 5000 ng/mL using dog plasma as matrix. Data acquisition and integration of SIM chromatograms were performed using MacQuan (version 1.6) from Perkin-Elmer Sciex.
The pharmacokinetic parameters were estimated by non-compartmental analysis, using the pharmacokinetic evaluation program WinNOnlin [1]. AUC(0-inf) was calculated applying the linear trapezoidal rule and extrapolation to infinity using the apparent elimination rate constant λz and the calculated concentration at the last measurable time point. AUClast values were calculated by linear trapezoidal rule from time zero to time of last measureable time point. Cmax, C(t), and Tmax were determined directly from the plasma concentration-time profiles. The apparent terminal half-life (T1/2) was derived from the equation: T1/2=ln2/λz. Means of the half-life were calculated by harmonic means. Plasma clearance, CL, was calculated as D/AUC(0-inf.). Volume of distribution, Vz, was calculated as CL/λz. The absolute bioavailability was calculated from plasma concentration data as follows: […]
A solution of Formula I (hydrochloride salt) was administered intravenously at a dose of 9.4 mg/kg to 2 male rats in two subsequent experiments. In both studies, blood samples were obtained at 0.083, 0.25, 0.5, 1, 2, 4, 6, 8, and 24 h after intravenous application and in addition at 48 and 72 h in the study.

[3] = male, RoRo Fuellinsdorf, rat, in vivo, po, 10 mg/kg
[4] = dogs, single oral, capsule, 120 mg/dog as free base, Protocol A, individual dogs
[5] = dogs, single oral, capsule, 120 mg/dog as free base, Protocol A, individual dogs, listed as hydrochloride salt
[6] = rats NJ97, NJ98, head prints (water, p.o), title: single oral in SSV, listed as Formula I (HCl salt)
[7] = rats NJ99, NJ100, head prints (water, i.p.), title: single oral in water, 9.3 mg/kg free base, listed as Formula I (HCl salt), 9.3 mg/kg
[8] = rats NJ101, NJ102, water, i.v., 9.3 mg/kg free base, listed as Formula I (HCl salt), 9.3 mg/kg

Cc1ccccc1-c1cc(N2CCN(C)CC2)ncc1N(C)C(=O)C(C)(C)c1cc(C(F)(F)F)cc(C(F)(F)F)c1 [Free Base, 2-(3,5-bis(trifluoromethyl)phenyl)-N,2-dimethyl-N-(6-(4-methylpiperazin-1-yl)-4-(o-tolyl)pyridin-3-yl)propanamide]
AUC (0-100 h) ([1]; male, dog, in vivo, po, 70 mg): 12800 ng·h/mL | AUC (0-Inf.) ([1]; male, dog, in vivo, po, 70 mg): 14500 ng·h/mL | Cmax ([1]; male, dog, in vivo, po, 70 mg): 667 ng/mL | T1/2 ([1]; male, dog, in vivo, po, 70 mg): 35.7 h | AUC(0-t) ([1]; male, dog, in vivo, po, 70 mg): 16200 ng·h/mL | AUC(0-inf) ([1]; male, dog, in vivo, po, 70 mg): 19300 ng·h/mL | Cmax ([1]; male, dog, in vivo, po, 70 mg, Cmax): 587 ng/mL | bioavailability ([1]; male, dog, in vivo, po, 70 mg, F (oral bioavailability)): 64% | half-life ([1]; male, dog, in vivo, po, 70 mg, T1/2): 40.4 h | Tmax ([1]; male, dog, in vivo, po, 70 mg, Tmax): 4 to 6 h | AUC (0-100 h) ([1]; male, dog, in vivo, po, 120 mg): 17400 ng·h/mL | AUC (0-Inf.) ([1]; male, dog, in vivo, po, 120 mg): 22600 ng·h/mL | Cmax ([1]; male, dog, in vivo, po, 120 mg): 757 ng/mL | T1/2 ([1]; male, dog, in vivo, po, 120 mg): 56.3 h | AUC(0-t) ([1]; male, dog, in vivo, po, 120 mg): 11000 ng·h/mL | AUC(0-inf) ([1]; male, dog, in vivo, po, 120 mg): 12700 ng·h/mL | Cmax ([1]; male, dog, in vivo, po, 120 mg, Cmax): 614 ng/mL | half-life ([1]; male, dog, in vivo, po, 120 mg, T1/2): 39.5 h | Tmax ([1]; male, dog, in vivo, po, 120 mg, Tmax): 2 h | half-life ([1]; male, dog, in vivo, po, apparent terminal half-lives): 36 to 56 h | bioavailability ([1]; male, dog, in vivo, po, oral (systemic) bioavailability): 34 to 83% | Cmax [2, 3]: 796 ng/mL | Tmax [2, 3]: 4 h | Cmax ([2]; male, RoRo Fuellinsdorf, rat, in vivo, po, 10 mg/kg, Cmax): 616 ng/mL | Tmax ([2]; male, RoRo Fuellinsdorf, rat, in vivo, po, 10 mg/kg, Tmax): 2.2 h

Cc1ccccc1-c1cc(N2CCN(C)CC2)ncc1N(C)C(=O)C(C)(C)c1cc(C(F)(F)F)cc(C(F)(F)F)c1.Cl [Hydrochloride]
AUC (0-100 h) [1, 4]: 25900 ng·h/mL and 20900 ng·h/mL | AUC (0-Inf.) [1, 4]: 36400 ng·h/mL and 26900 ng·h/mL | F (oral bioavailability) [1, 4]: 91.4% and 66.7% | T1/2 [1, 4]: 48.2 h | Cmax [1, 5]: 1110 ng/mL and 733 ng/mL | F (oral bioavailability) [1, 5]: 91% and 67% | T1/2 [1, 5]: 64 h and 44 h | Tmax [1, 5]: 1 h and 4 h | F ([2]; rats NJ97, NJ98, head prints (water, p.o), title: single oral in SSV, calculated with AUC 0-48 h, listed as Formula I (HCl salt)): 42.4% and 53.7% | AUC (0-48 h) [2, 6]: 12000 ng·h/mL and 15200 ng·h/mL | AUC (0-Inf. h) [2, 6]: 12800 ng·h/mL and 15800 ng·h/mL | Cmax [2, 6]: 616 ng/mL and 796 ng/mL | T1/2 [2, 6]: 11.6 h and 10.2 h | Tmax [2, 6]: 2.2 h and 4.0 h | AUC (0-48 h) [2, 7]: 26200 ng·h/mL and 20100 ng·h/mL | AUC (0-Inf. h) [2, 7]: 37900 ng·h/mL and 34000 ng·h/mL | Cmax [2, 7]: 933 ng/mL and 1060 ng/mL | F [2, 7]: 98.6% and 75.7% | T1/2 [2, 7]: 26.5 h and 27.1 h | Tmax [2, 7]: 6.3 h and 4.0 h | AUC (0-48 h) [2, 8]: 31700 ng·h/mL and 21400 ng·h/mL | AUC (0-Inf. h), **calculated with AUC (0-72 h) [2, 8]: 49300** ng · h/mL and 32300** ng · h/mL | CL* (calculated with AUC (0-24 h)) [2, 8]: 4.96 mL/min/kg and 7.35 mL/min/kg | T1/2, ***without 72 h concentration [2, 8]: 25.5*** h and 18.2*** h | Vz* (calculated with AUC (0-24 h)) [2, 8]: 11.0 L/kg and 11.5 L/kg | plasma concentrations at 72 h relative to those at 48 h ([2]; rats, i.v.): 4 times | mean apparent terminal half-life ([2]; rats, i.v., 9.4 mg/kg, n=4): 19.8 h | increase of plasma levels at 72 h post-dose over 48 h ([2]; rats, oral solution in water): very small | mean (±SD) apparent terminal half-life ([2]; rats, oral solution in water, 4 rats): 13.6 h | increase of plasma levels at 72 h post-dose over 48 h ([2]; rats, oral suspension in SSV): approximately 5 fold
